Measurements: patent US20200216416A1, “QUINOLINE COMPOUNDS AS INHIBITORS OF TAM AND MET KINASES” (Array BioPharma Inc., priority 2019, published 2020)
Read-outs that look alike come from different tables or passages of the source.

Molecular target: T1, MDR1 (P-gp) (Homo sapiens, UniProt P08183)
T1 construct: expressed in transfected cells; host or cells: LLC-PK1
Experiment: MDR1 LLC-PK1 permeability assay
Type: in vitro ADME
Conditions: pig, MDR1 transfected LLC-PK1 cells; for Papp at 2 h, 1 μM: permeability coefficient (Papp)
Method: MDR1 transfected LLC-PK1 cells were cultured and plated according to manufacturer's recommendations with the exception that the passage media contained only 2% fetal bovine serum to extend passage time out to seven days.
Both positive and negative controls were used to assess functionality of P-gp efflux in the assay. Stock solutions for assay controls and the test article were prepared in DMSO for final test concentrations of 10 and 1 μM, respectively. Final organic concentration in the assay was 1%. All dosing solutions contained 10 μM lucifer yellow to monitor LLC-PK1 cell monolayer integrity.
For the apical to basolateral determination (A to B), 75 μL of the test article in transport buffer were added to the apical side of the individual transwells and 250 μL of basolateral media, without compound or lucifer yellow, were added to each well. For the basolateral to apical determination (B to A), 250 μL of test article in transport buffer were added to each well and 75 μL transport buffer, without compound or lucifer yellow, were added to each transwell. All tests were performed in triplicate, and each compound was tested for both apical to basolateral and basolateral to apical transport. The plates were incubated for 2 hours on a Lab-Line Instruments Titer Orbital Shaker (VWR, West Chester, Pa.) at 50 rpm and 37° C. with 5% CO2. All culture plates were removed from the incubator and 50 μL of media were removed from the apical and basolateral portion of each well and added to 150 μL of 1 μM labetalol in 2:1 acetonitrile (acetonitrile): H2O, v/v.
The plates were read using a Molecular Devices (Sunnyvale, Calif.) Gemini Fluorometer to evaluate the lucifer yellow concentrations at excitation/emission wavelengths of 425/535 nm. These values were accepted when found to be below 2% for apical to basolateral and 5% basolateral to apical flux across the MDR1-transfected LLC-PK1-transfected cell monolayers. The plates were sealed and the contents of each well analyzed by LC-MS/MS. The compound concentrations were determined from the ratio of the peak areas of the compound to the internal standard (labetalol) in comparison to the dosing solution.
The LC-MS/MS system was comprised of an HTS-PAL autosampler (Leap Technologies, Carrboro, N.C.), an HP1200 HPLC (Agilent, Palo Alto, Calif.), and a MDS Sciex 4000 Q Trap system (Applied Biosystems, Foster City, Calif.). […] The total run time, including re-equilibration, for a single injection was 1.2 minutes. Mass spectrometric detection of the analytes was accomplished using the ion spray positive mode. Analyte responses were measured by multiple reaction monitoring (MRM) of transitions unique to each compound (the protonated precursor ion and selected product ions for each test article and m/z 329 to m/z 162 for labetalol, the internal standard).
The permeability coefficient (Papp) is calculated from the following equation: […]
where Cd, V, t and C0 are the detected concentration (μM), the volume on the dosing side (mL), the incubation time (s) and the initial dosing concentration (μM), respectively. The calculations for Papp were made for each replicate and then averaged. In this assay, a compound is defined has having high permeability if the permeability is greater than 8×10^−6 cm/sec, a compound is defined has having medium permeability if the permeability is from 2×10^−6 cm/sec to 8×10^−6 cm/sec, and a compound is defined has having low permeability if the permeability is less than 2×10^−6 cm/sec.
An efflux ratio was calculated from the mean apical to basolateral (A-B) Papp data and basolateral to apical (B-A) Papp data:
Efflux ratio=Papp(B−A)/Papp(A−B)

[1] = LLC-PK1, Papp(B−A)/Papp(A−B), test article 1 μM, 2 hours, 37° C., read-out: Efflux ratio
[2] = LLC-PK1, efflux ratio = Papp(B-A)/Papp(A-B), read-out: MDR1 Pe Ratio

T1 sequence (P08183 whole entry): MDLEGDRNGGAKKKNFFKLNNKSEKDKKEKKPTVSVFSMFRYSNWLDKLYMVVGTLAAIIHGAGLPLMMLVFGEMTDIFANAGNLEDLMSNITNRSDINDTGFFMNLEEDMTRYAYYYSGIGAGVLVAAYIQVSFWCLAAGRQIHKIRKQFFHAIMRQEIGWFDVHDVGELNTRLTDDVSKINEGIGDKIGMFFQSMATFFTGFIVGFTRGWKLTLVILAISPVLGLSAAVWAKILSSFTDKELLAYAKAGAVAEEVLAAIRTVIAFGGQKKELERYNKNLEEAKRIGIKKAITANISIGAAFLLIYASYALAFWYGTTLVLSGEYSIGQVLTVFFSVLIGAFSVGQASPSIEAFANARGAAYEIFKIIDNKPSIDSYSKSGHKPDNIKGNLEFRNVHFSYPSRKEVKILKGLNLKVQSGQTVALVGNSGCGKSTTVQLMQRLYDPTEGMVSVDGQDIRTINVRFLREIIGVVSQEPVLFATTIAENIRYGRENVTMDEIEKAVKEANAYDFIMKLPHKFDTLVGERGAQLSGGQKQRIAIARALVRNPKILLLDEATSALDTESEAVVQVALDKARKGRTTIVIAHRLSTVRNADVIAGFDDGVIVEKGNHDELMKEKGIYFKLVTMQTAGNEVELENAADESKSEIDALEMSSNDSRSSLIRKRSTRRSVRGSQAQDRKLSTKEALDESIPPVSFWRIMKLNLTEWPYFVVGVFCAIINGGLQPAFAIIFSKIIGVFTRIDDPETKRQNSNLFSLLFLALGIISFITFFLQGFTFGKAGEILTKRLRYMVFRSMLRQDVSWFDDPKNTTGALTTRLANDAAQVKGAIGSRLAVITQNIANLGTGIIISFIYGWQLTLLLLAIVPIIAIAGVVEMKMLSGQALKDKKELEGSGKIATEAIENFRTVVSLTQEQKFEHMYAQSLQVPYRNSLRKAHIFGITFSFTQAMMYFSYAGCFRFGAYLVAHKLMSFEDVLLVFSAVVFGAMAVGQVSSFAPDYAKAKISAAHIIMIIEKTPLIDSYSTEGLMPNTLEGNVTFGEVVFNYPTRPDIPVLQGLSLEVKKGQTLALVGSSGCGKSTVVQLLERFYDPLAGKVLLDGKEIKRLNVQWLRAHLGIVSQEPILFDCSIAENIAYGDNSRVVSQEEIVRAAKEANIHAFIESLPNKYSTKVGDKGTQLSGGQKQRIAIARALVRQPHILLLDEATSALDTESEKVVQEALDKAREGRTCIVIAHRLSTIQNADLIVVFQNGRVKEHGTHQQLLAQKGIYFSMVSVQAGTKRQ

| efflux ratio at 2 h, 1 μM [1] | efflux ratio at 2 h, 1 μM [2] | Papp at 2 h, 1 μM | SMILES |
| --- | --- | --- | --- |
| 3.5 | 3.2 | 10 ×10⁻⁶ cm/s | COc1cc2nccc(Oc3ccc(NC(=O)c4cn(C(C)C)cc(-c5ccc(F)cc5)c4=O)nc3)c2cc1OC [Example 1] |
| 3.5 | 1.5 | 10 ×10⁻⁶ cm/s | COc1cc2nccc(Oc3ccc(NC(=O)c4cn(C(C)C)cc(-c5ccc(F)cc5F)c4=O)nc3)c2cc1OC [Example 4] |
| – | 4.9 | 7 ×10⁻⁶ cm/s | COc1cc2nccc(Oc3ccc(NC(=O)c4cn(C(C)C)cc(-c5ccc(F)c(F)c5)c4=O)nc3)c2cc1OC [Example 6] |
| – | 8.2 | 11 ×10⁻⁶ cm/s | COCCn1cc(C(=O)Nc2ccc(Oc3ccnc4cc(OC)c(OC)cc34)cn2)c(=O)c(-c2ccc(F)cc2)c1 [Example 7, N-(5((6,7-dimethoxyquinolin-4-yl)oxy)pyridin-2-yl)-5-(4-fluorophenyl)-1-(2-methoxyethyl)-4-oxo-1,4-dihydropyridine-3-carboxamide] |
| – | 10 | 9 ×10⁻⁶ cm/s | COc1cc2nccc(Oc3ccc(NC(=O)c4cn(CC5CCOCC5)cc(-c5ccc(F)cc5)c4=O)nc3)c2cc1OC [Example 8, N-(5-((6,7-dimethoxyquinolin-4-yl)oxy)pyridin-2-yl)-5-(4-fluorophenyl)-4-oxo-1-((tetrahydro-2H-pyran-4-yl)methyl)-1,4-dihydropyridine-3-carboxamide] |
| – | 26 | 14 ×10⁻⁶ cm/s | COc1cc2nccc(Oc3ccc(NC(=O)c4cn(CC(C)(C)O)cc(-c5ccc(F)cc5)c4=O)nc3)c2cc1OC [Example 9, N-(5-((6,7-dimethoxyquinolin-4-yl)oxy)pyridin-2-yl)-5-(4-fluorophenyl)-1-(2-hydroxy-2-methylpropyl)-4-oxo-1,4-dihydropyridine-3-carboxamide] |
| – | 2.7 | 7 ×10⁻⁶ cm/s | CCCn1cc(C(=O)Nc2ccc(Oc3ccnc4cc(OC)c(OC)cc34)cn2)c(=O)c(-c2ccc(F)cc2)c1 [Example 10, N-(5((6,7-dimethoxyquinolin-4-yl)oxy)pyridin-2-yl)-5-(4-fluorophenyl)-4-oxo-1-propyl-1,4-dihydropyridine-3-carboxamide] |
| – | 31 | – | COc1cc2nccc(Oc3ccc(NC(=O)c4cn(CC(C)C)cc(-c5ccc(F)cc5)c4=O)nc3)c2cc1OC [Example 11, N-(5-((6,7-dimethoxyquinolin-4-yl)oxy)pyridin-2-yl)-5-(4-fluorophenyl)-1-isobutyl-4-oxo-1,4-dihydropyridine-3-carboxamide] |
| – | 112 | 6 ×10⁻⁶ cm/s | COc1cc2nccc(Oc3ccc(NC(=O)c4cn(CC(=O)N(C)C)cc(-c5ccc(F)cc5F)c4=O)nc3)c2cc1OC [Example 13, 5-(2,4-difluorophenyl)-N-(5((6,7-dimethoxyquinolin-4-yl)oxy)pyridin-2-yl)-1-(2-(dimethylamino)-2-oxoethyl)-4-oxo-1,4-dihydropyridine-3-carboxamide] |
| – | 80 | 2 ×10⁻⁶ cm/s | CNC(=O)Cn1cc(C(=O)Nc2ccc(Oc3ccnc4cc(OC)c(OC)cc34)cn2)c(=O)c(-c2ccc(F)cc2)c1 [Example 22] |

Further lines, the molecule ahead of its results:

| SMILES | efflux ratio at 2 h, 1 μM [1] | efflux ratio at 2 h, 1 μM [2] | Papp at 2 h, 1 μM |
| --- | --- | --- | --- |
| COc1cc2nccc(Oc3ccc(NC(=O)c4cn(C)cc(-c5ccc(F)cc5)c4=O)nc3)c2cc1OC [Example 2] | – | 8.3 | 15 ×10⁻⁶ cm/s |
| CCn1cc(C(=O)Nc2ccc(Oc3ccnc4cc(OC)c(OC)cc34)cn2)c(=O)c(-c2ccc(F)cc2)c1 [Example 3] | – | 4.3 | 10 ×10⁻⁶ cm/s |
| COc1cc2nccc(Oc3ccc(NC(=O)c4cn(C(C)C)cc(-c5ccc(Cl)cc5)c4=O)nc3)c2cc1OC [Example 5, 5-(4-chlorophenyl)-N-(5-((6,7-dimethoxyquinolin-4-yl)oxy)pyridin-2-yl)-1-isopropyl-4-oxo-1,4-dihydropyridine-3-carboxamide] | 3.5 | 2.6 | 5 ×10⁻⁶ cm/s |
| COc1cc2nccc(Oc3ccc(NC(=O)c4cn(C5CCOCC5)cc(-c5ccc(F)cc5)c4=O)nc3)c2cc1OC [Example 12, N-(5((6,7-dimethoxyquinolin-4-yl)oxy)pyridin-2-yl)-5-(4-fluorophenyl)-4-oxo-1-(tetrahydro-2H-pyran-4-yl)-1,4-dihydropyridine-3-carboxamide] | – | 15 | 13 ×10⁻⁶ cm/s |
| COc1cc2nccc(Oc3ccc(NC(=O)c4cn(CC(=O)N5CCCC5)cc(-c5ccc(F)cc5F)c4=O)nc3)c2cc1OC [Example 14] | – | 125 | 10 ×10⁻⁶ cm/s |
| COc1cc2nccc(Oc3ccc(NC(=O)c4cn(CC(=O)N5CCOCC5)cc(-c5ccc(F)cc5F)c4=O)nc3)c2cc1OC [Example 15, 5-(2,4-difluorophenyl)-N-(5-((6,7-dimethoxyquinolin-4-yl)oxy)pyridin-2-yl)-1-(2-morpholino-2-oxoethyl)-4-oxo-1,4-dihydropyridine-3-carboxamide] | – | 135 | 2 ×10⁻⁶ cm/s |
| CCC(CC)n1cc(C(=O)Nc2ccc(Oc3ccnc4cc(OC)c(OC)cc34)cn2)c(=O)c(-c2ccc(F)cc2F)c1 [Example 16, 5-(2,4-difluorophenyl)-N-(5-((6,7-dimethoxyquinolin-4yl)oxy)pyridin-2-yl)-4-oxo-1-(pentan-3-yl)-1,4-dihydropyridine-3-carboxamide] | 3.5 | 2 | 4 ×10⁻⁶ cm/s |
| CCCC(CCC)n1cc(C(=O)Nc2ccc(Oc3ccnc4cc(OC)c(OC)cc34)cn2)c(=O)c(-c2ccc(F)cc2F)c1 [Example 17, 5-(2,4-difluorophenyl)-N-(5-((6,7-dimethoxyquinolin-4yl)oxy)pyridin-2-yl)-1-(heptan-4-yl)-4-oxo-1,4-dihydropyridine-3-carboxamide] | – | 24 | < 1 ×10⁻⁶ cm/s |
| COc1cc2nccc(Oc3ccc(NC(=O)c4cn(C(C)C)cc(-c5ccc(F)cc5Cl)c4=O)nc3)c2cc1OC [Example 18, 5-(2-chloro-4-fluorophenyl)-N-(5-((6,7-dimethoxyquinolin-4-yl)oxy)pyridin-2-yl)-1-isopropyl-4-oxo-1,4-dihydropyridine-3-carboxamide] | 3.5 | 2.1 | 11 ×10⁻⁶ cm/s |
| COc1cc2nccc(Oc3ccc(NC(=O)c4cn(C(C)C)cc(-c5ccc(F)cc5C)c4=O)nc3)c2cc1OC [Example 19, N-(5-((6,7-dimethoxyquinolin-4yl)oxy)pyridin-2-yl)-5-(4-fluoro-2-methylphenyl)-1-isopropyl-4-oxo-1,4-dihydropyridine-3-carboxamide] | 3.5 | 2.8 | 11 ×10⁻⁶ cm/s |
| COc1cc(-c2cn(C(C)C)cc(C(=O)Nc3ccc(Oc4ccnc5cc(OC)c(OC)cc45)cn3)c2=O)ccc1F [Example 20, N-(5-((6,7-dimethoxyquinolin-4yl)oxy)pyridin-2-yl)-5-(4-fluoro-3-methoxyphenyl)-1-isopropyl-4-oxo-1,4-dihydropyridine-3-carboxamide] | – | 3.6 | 9 ×10⁻⁶ cm/s |
| COc1cc2nccc(Oc3ccc(NC(=O)c4cn(C(C)C)cc(-c5ccc(F)c(Cl)c5)c4=O)nc3)c2cc1OC [Example 21, 5-(3-chloro-4-fluorophenyl)-N-(5-((6,7-dimethoxyquinolin-4-yl)oxy)pyridin-2-yl)-1-isopropyl-4-oxo-1,4-dihydropyridine-3-carboxamide] | 3.5 | 1.3 | 1.2 ×10⁻⁶ cm/s |
